Experimental data taken from US20230365553A1, “COMPOUNDS AND COMPOSITIONS FOR TREATING CONDITIONS ASSOCIATED WITH STING ACTIVITY” (IFM Due, Inc., priority 2020, published 2023).

These compounds were tested against T1, STING (Homo sapiens, UniProt Q86WV6, G230A/H232R/R293Q/R71H) (assay: STING reporter assay: luciferase reporter activity in THP1-Dual KO-IFNAR2 cells stimulated with 2′3′cGAMP). Details: 15 μM 2′3′cGAMP, 24h, read-out: hSTING EC50.
T1 construct: host or cells: THP1-Dual KO-IFNAR2 cells
T1 sequence (Q86WV6 whole entry R71H/G230A/H232R/R293Q): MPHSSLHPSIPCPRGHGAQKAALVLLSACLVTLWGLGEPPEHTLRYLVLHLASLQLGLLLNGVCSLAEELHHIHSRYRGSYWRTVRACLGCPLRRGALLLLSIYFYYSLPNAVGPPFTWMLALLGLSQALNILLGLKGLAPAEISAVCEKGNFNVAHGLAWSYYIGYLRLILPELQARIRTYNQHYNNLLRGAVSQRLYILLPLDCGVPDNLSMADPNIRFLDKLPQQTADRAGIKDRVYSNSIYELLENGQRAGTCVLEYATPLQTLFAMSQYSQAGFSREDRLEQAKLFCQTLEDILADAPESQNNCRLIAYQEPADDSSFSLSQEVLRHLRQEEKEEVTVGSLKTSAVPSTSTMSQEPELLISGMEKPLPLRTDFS
Type: cell-based
Description: STING pathway activation by the compounds described herein was measured using THP 1-Dual™ cells (KO-IFNAR2).
THP1-Dual™ KO-IFNAR2 Cells (obtained from invivogen) were maintained in RPMI, 10% FCS, 5 ml P/S, 2 mM L-glut, 10 mM Hepes, and 1 mM sodium pyruvate. Compounds were spotted in empty 384 well tissue culture plates (Greiner 781182) by Echo for a final concentration of 0.0017-100 μM. Cells were plated into the TC plates at 40 μL per well, 2×10E6 cells/mL. For activation with STING ligand, 2′3′cGAMP (MW 718.38, obtained from Invivogen), was prepared in Optimem media.
The following solutions were prepared for each 1×384 plate: • Solution A: 2 mL Optimem with one of the following stimuli: • 60 μL of 10 mM 2′3′cGAMP→150 μM stock • Solution B: 2 mL Optimem with 60 μL Lipofectamine 2000→Incubate 5 min at RT
2 mL of solution A and 2 ml Solution B was mixed and incubated for 20 min at room temperature (RT). 20 μL of transfection solution (A+B) was added on top of the plated cells, with a final 2′3′cGAMP concentration of 15 μM. The plates were then centrifuged immediately at 340 g for 1 minute, after which they were incubated at 37° C., 5% CO2, >98% humidity for 24h. Luciferase reporter activity was then measured. EC50 values were calculated by using standard methods known in the art.
Luciferase reporter assay: 10 μL of supernatant from the assay was transferred to white 384-plate with flat bottom and squared wells. One pouch of QUANTI-Luc™ Plus was dissolved in 25 mL of water. 100 μL of QLC Stabilizer per 25 mL of QUANTI-Luc™ Plus solution was added. 50 μL of QUANTI-Luc™ Plus/QLC solution per well was then added. Luminescence was measured on a Platereader (e.g., Spectramax I3X (Molecular Devices GF3637001)).
Luciferase reporter activity was then measured. EC50 values were calculated by using standard methods known in the art.
Work on `CCC(=O)Nc1c[nH]c2ccc(-c3ccc(OC(F)(F)F)cc3)cc12` [Compound 143, N-(5-(4-(trifluoromethoxy)phenyl)-1H-indol-3-yl)propionamide] yielded an EC50 of 1000 to 5000 nM.
For `CCC(=O)Nc1c[nH]c2ccc(-c3cnn(-c4ccc(CC)cc4)c3)cc12` [Compound 151, N-(5-(1-(4-ethylphenyl)-1H-pyrazol-4-yl)-1H-indol-3-yl)propionamide], the EC50 was 40 to 200 nM.
Compound `O=C(CNCC(F)(F)F)Nc1c[nH]c2ccc(-c3cnn(-c4ccc(C(F)(F)F)cc4)c3)cc12` [Compound 183, 2-((2,2,2-trifluoroethyl)amino)-N-(5-(1-(4-(trifluoromethyl)phenyl)-1H-pyrazol-4-yl)-1H-indol-3-yl)acetamide] has an EC50 of 1000 to 5000 nM.
`CC(C)(O)CC(=O)Nc1c[nH]c2ccc(-c3cnn(-c4ccc(C(F)(F)F)cc4)c3)cc12` [Compound 173, 3-hydroxy-3-methyl-N-(5-(1-(4-(trifluoromethyl)phenyl)-1H-pyrazol-4-yl)-1H-indol-3-yl)butanamide] was tested, and the EC50 was 200 to 1000 nM.
Work on `CCC(=O)Nc1c[nH]c2ccc(-c3cnn(-c4ccc(COC)cc4)c3)cc12` [Compound 104, N-(5-(1-(4-(methoxymethyl)phenyl)-1H-pyrazol-4-yl)-1H-indol-3-yl)propionamide] yielded an EC50 of 200 to 1000 nM.
`CC(=O)Nc1c[nH]c2ccc(-c3cnn(-c4ccc(CC(F)(F)F)cc4)c3)cc12` [Compound 167, N-(5-(1-(4-(2,2,2-trifluoroethyl)phenyl)-1H-pyrazol-4-yl)-1H-indol-3-yl)acetamide] showed an EC50 of 40 to 200 nM.
`C[C@@H](O)C(=O)Nc1c[nH]c2cc(F)c(-c3cnn(-c4ccc(C(F)(F)F)cc4)c3)cc12` [Compound 192, (R)-N-(6-fluoro-5-(1-(4-(trifluoromethyl)phenyl)-1H-pyrazol-4-yl)-1H-indol-3-yl)-2-hydroxypropanamide] gave an EC50 of 200 to 1000 nM.
`O=C(Nc1c[nH]c2ccc(-c3cnn(-c4ccc(C(F)(F)F)cc4)c3)cc12)c1cscn1` [Compound 275, N-(5-(1-(4-(trifluoromethyl)phenyl)-1H-pyrazol-4-yl)-1H-indol-3-yl)thiazole-4-carboxamide] was tested, and the EC50 was 1000 to 5000 nM.
`CN1CC(C(=O)Nc2c[nH]c3ccc(-c4cnn(-c5ccc(C(F)(F)F)cc5)c4)cc23)CCC1=O` (stereo not drawn) [Compound 224, 1-methyl-6-oxo-N-(5-(1-(4-(trifluoromethyl)phenyl)-1H-pyrazol-4-yl)-1H-indol-3-yl)piperidine-3-carboxamide] gave an EC50 of 1000 to 5000 nM.
Compound `CCC(=O)Nc1c[nH]c2ccc(-c3cnn(-c4ccc(CC)nc4)c3)cc12` [Compound 120, N-(5-(1-(6-ethylpyridin-3-yl)-1H-pyrazol-4-yl)-1H-indol-3-yl)propionamide] has an EC50 of 1000 to 5000 nM.
`CCc1ccc(-n2cc(-c3ccc4[nH]cc(NC(=O)C5CCCCO5)c4c3)cn2)cc1` (stereo not drawn) [Compound 165, N-(5-(1-(4-ethylphenyl)-1H-pyrazol-4-yl)-1H-indol-3-yl)tetrahydro-2H-pyran-2-carboxamide] gave an EC50 of 200 to 1000 nM.
Compound `CCc1ccc(-n2cc(-c3ccc4[nH]cc(NC(=O)C5CC(=O)N5)c4c3)cn2)cc1` (stereo not drawn) [Compound 121, N-(5-(1-(4-ethylphenyl)-1H-pyrazol-4-yl)-1H-indol-3-yl)-4-oxoazetidine-2-carboxamide] has an EC50 of 200 to 1000 nM.
Compound `CS(=O)(=O)CCC(=O)Nc1c[nH]c2ccc(-c3cnn(-c4ccc(C(F)(F)F)cc4)c3)cc12` [Compound 240, 3-(methylsulfonyl)-N-(5-(1-(4-(trifluoromethyl)phenyl)-1H-pyrazol-4-yl)-1H-indol-3-yl)propanamide] has an EC50 of 200 to 1000 nM.
`CC(C)[C@H](O)C(=O)Nc1c[nH]c2ccc(-c3cnn(-c4ccc(C(F)(F)F)cc4)c3)cc12` [Compound 204, (S)-2-hydroxy-3-methyl-N-(5-(1-(4-(trifluoromethyl)phenyl)-1H-pyrazol-4-yl)-1H-indol-3-yl)butanamide] gave an EC50 of 1000 to 5000 nM.
For `CCC(=O)Nc1c[nH]c2ccc(-c3cnn(-c4ccc(C(F)(F)F)c(COC)c4)c3)cc12` [Compound 256, N-(5-(1-(3-(methoxymethyl)-4-(trifluoromethyl)phenyl)-1H-pyrazol-4-yl)-1H-indol-3-yl)propionamide], the EC50 was 1000 to 5000 nM.
For `CC(=O)N(C)c1c[nH]c2ccc(-c3cnn(-c4ccc(C(F)(F)F)cc4)c3)cc12` [Compound 246, N-methyl-N-(5-(1-(4-(trifluoromethyl)phenyl)-1H-pyrazol-4-yl)-1H-indol-3-yl)acetamide], the EC50 was 5000 to 100000 nM.
`CCc1ccc(-n2cc(-c3ccc4[nH]cc(NC(=O)C5CCN(C(=O)OC(C)(C)C)C5)c4c3)cn2)cc1` (stereo not drawn) [Compound 108, tert-butyl 3-((5-(1-(4-ethylphenyl)-1H-pyrazol-4-yl)-1H-indol-3-yl)carbamoyl)pyrrolidine-1-carboxylate] gave an EC50 of 200 to 1000 nM.
`O=C(CCC(F)(F)F)Nc1c[nH]c2ccc(-c3cnn(-c4ccc(C(F)(F)F)cc4)c3)cc12` [Compound 214, 4,4,4-trifluoro-N-(5-(1-(4-(trifluoromethyl)phenyl)-1H-pyrazol-4-yl)-1H-indol-3-yl)butanamide] was tested, and the EC50 was 200 to 1000 nM.
With `CCC(=O)Nc1c[nH]c2ccc(-c3ccnn3-c3ccc(C(F)(F)F)cc3)cc12` [Compound 116, N-(5-(1-(4-(trifluoromethyl)phenyl)-1H-pyrazol-5-yl)-1H-indol-3-yl)propionamide] the EC50 was 5000 to 100000 nM.
In the case of `CC(=O)Nc1c[nH]c2ccc(-c3cnn(Cc4cnc(C5CCC(F)(F)CC5)c(F)c4)c3)cc12` [Compound 250, N-(5-(1-((6-(4,4-difluorocyclohexyl)-5-fluoropyridin-3-yl)methyl)-1H-pyrazol-4-yl)-1H-indol-3-yl)acetamide], the EC50 is reported as 5000 to 100000 nM.
`CCc1ccc(-n2cc(-c3ccc4[nH]cc(NC(=O)C5CCCCC5)c4c3)cn2)cc1` [Compound 123, N-(5-(1-(4-ethylphenyl)-1H-pyrazol-4-yl)-1H-indol-3-yl)cyclohexanecarboxamide] gave an EC50 of 40 to 200 nM.
With `CC1(C(=O)Nc2c[nH]c3ccc(-c4cnn(-c5ccc(C(F)(F)F)cc5)c4)cc23)COC1` [Compound 232, 3-methyl-N-(5-(1-(4-(trifluoromethyl)phenyl)-1H-pyrazol-4-yl)-1H-indol-3-yl)oxetane-3-carboxamide] the EC50 was 200 to 1000 nM.
Work on `CCc1ccc(-n2cc(-c3ccc4[nH]cc(NC(=O)C5CN(C)C5)c4c3)cn2)cc1` [Compound 129, N-(5-(1-(4-ethylphenyl)-1H-pyrazol-4-yl)-1H-indol-3-yl)-1-methylazetidine-3-carboxamide] yielded an EC50 of 5000 to 100000 nM.
`O=C(Nc1c[nH]c2cnc(-c3cnn(-c4ccc(C(F)(F)F)cc4)c3)cc12)C1CCC1` [Compound 255, N-(5-(1-(4-(trifluoromethyl)phenyl)-1H-pyrazol-4-yl)-1H-pyrrolo[2,3-c]pyridin-3-yl)cyclobutanecarboxamide] showed an EC50 of 5000 to 100000 nM.
In the case of `CCc1ccc(-n2cc(-c3ccc4[nH]cc(NC(=O)COC)c4c3)cn2)cc1` [Compound 106, N-(5-(1-(4-ethylphenyl)-1H-pyrazol-4-yl)-1H-indol-3-yl)-2-methoxyacetamide], the EC50 is reported as 40 to 200 nM.
With `O=C(Nc1c[nH]c2ncc(-c3cnn(-c4ccc(C(F)(F)F)cc4)c3)cc12)C1CCC1` [Compound 251, N-(5-(1-(4-(trifluoromethyl)phenyl)-1H-pyrazol-4-yl)-1H-pyrrolo[2,3-b]pyridin-3-yl)cyclobutanecarboxamide] the EC50 was 5000 to 100000 nM.
`Cn1cnc(C(=O)Nc2c[nH]c3ccc(-c4cnn(-c5ccc(C(F)(F)F)cc5)c4)cc23)c1` [Compound 281, 1-methyl-N-(5-(1-(4-(trifluoromethyl)phenyl)-1H-pyrazol-4-yl)-1H-indol-3-yl)-1H-imidazole-4-carboxamide] showed an EC50 of 1000 to 5000 nM.
